Measured values reported in PubChem BioAssay AID1963860 (Molecular Pharmacology Branch, DTP, NCI, 2024).
pIC50: −log10 of the molar value.

System: CN0375-F725-PDC KRAS spheroid viability
Test: Anticancer human tumor CN0375-F725-PDC patient-derived colon carcinoma cell line growth inhibition [KRAS2]
Details: spheroids with HUVEC and MSC; for viability, T/C: stronger effect = lower value
How it was run: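 Combination screen of spheroid viability in tumor-cell co-cultures with endothelial (HUVEC) and mesenchymal stem cell stroma. Each agent was tested in half-log dilutions, topping at clinical Cmax or at 10 microM without a known Cmax.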

[1] = curve of first compound, second compound 0.1 µM
[2] = curve of first compound, second compound 0.316 µM
[3] = curve of first compound, second compound 1 µM
[4] = curve of first compound, second compound 3.16 µM
[5] = curve of first compound, second compound 10 µM
[6] = second compound 0.1 µM, first compound 0.0316 µM
[7] = second compound 0.1 µM, first compound 0.1 µM
[8] = second compound 0.1 µM, first compound 0.316 µM
[9] = second compound 0.1 µM, first compound 1 µM
[10] = second compound 0.1 µM, first compound 3.16 µM
[11] = second compound 0.1 µM, first compound 10 µM
[12] = second compound 0.316 µM, first compound 0.0316 µM
[13] = second compound 0.316 µM, first compound 0.1 µM
[14] = second compound 0.316 µM, first compound 0.316 µM
[15] = second compound 0.316 µM, first compound 1 µM
[16] = second compound 0.316 µM, first compound 3.16 µM
[17] = second compound 0.316 µM, first compound 10 µM
[18] = second compound 1 µM, first compound 0.0316 µM
[19] = second compound 1 µM, first compound 0.1 µM
[20] = second compound 1 µM, first compound 0.316 µM
[21] = second compound 1 µM, first compound 1 µM
[22] = second compound 1 µM, first compound 3.16 µM
[23] = second compound 1 µM, first compound 10 µM
[24] = second compound 3.16 µM, first compound 0.0316 µM
[25] = second compound 3.16 µM, first compound 0.1 µM
[26] = second compound 3.16 µM, first compound 0.316 µM
[27] = second compound 3.16 µM, first compound 1 µM
[28] = second compound 3.16 µM, first compound 3.16 µM
[29] = second compound 3.16 µM, first compound 10 µM
[30] = second compound 10 µM, first compound 0.0316 µM
[31] = second compound 10 µM, first compound 0.1 µM
[32] = second compound 10 µM, first compound 0.316 µM
[33] = second compound 10 µM, first compound 1 µM
[34] = second compound 10 µM, first compound 3.16 µM
[35] = second compound 10 µM, first compound 10 µM
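Note: spheroids exposed to agents for 7 days.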

CC(C)NCC(C(=O)N1CCN(c2ncnc3c2C(C)CC3O)CC1)c1ccc(Cl)cc1 (centres undefined) + COc1cc2nc(C)nc(NC(C)c3cc(N)cc(C(F)(F)F)c3)c2cc1OC1CCOC1
pIC50 [1]: < 5.00 | pIC50 [2]: < 5.00 | pIC50 [3]: < 5.00 | pIC50 [4]: < 5.00 | pIC50 [5]: > 7.50 | viability, T/C [6]: 100% | viability, T/C [7]: 100% | viability, T/C [8]: 87.7% | viability, T/C [9]: 88.3% | viability, T/C [10]: 84.8% | viability, T/C [11]: 74.4% | viability, T/C [12]: 95.5% | viability, T/C [13]: 97.3% | viability, T/C [14]: 88.5% | viability, T/C [15]: 85.1% | viability, T/C [16]: 81.3% | viability, T/C [17]: 71.1% | viability, T/C [18]: 93.6% | viability, T/C [19]: 93.3% | viability, T/C [20]: 85.2% | viability, T/C [21]: 80.7% | viability, T/C [22]: 74.4% | viability, T/C [23]: 65.5% | viability, T/C [24]: 88.5% | viability, T/C [25]: 81.7% | viability, T/C [26]: 76.9% | viability, T/C [27]: 66.9% | viability, T/C [28]: 62.4% | viability, T/C [29]: 50.5% | viability, T/C [30]: 16.1% | viability, T/C [31]: 18.6% | viability, T/C [32]: 14.8% | viability, T/C [33]: 10.8% | viability, T/C [34]: 8.1% | viability, T/C [35]: 5.67%

CC1COCCN1c1cc(-c2ccnn2C)c2ccnc(-c3ccn[nH]3)c2n1 (centres undefined)
viability, T/C (compound 0.01 µM): 105% [middle of 5 runs] | viability, T/C (compound 0.0316 µM): 97.3% [middle of 5 runs] | viability, T/C (compound 0.1 µM): 90.8% [middle of 5 runs] | viability, T/C (compound 0.316 µM): 85.7% [middle of 5 runs] | viability, T/C (compound 1 µM): 72.1% [middle of 5 runs] | viability, T/C (compound 3.16 µM): 58.4% [middle of 5 runs] | pIC50 (curve of compound): < 5.50

COc1cc(Nc2ncc3c(n2)-c2ccc(Cl)cc2C(c2c(F)cccc2OC)=NC3)ccc1C(=O)O
viability, T/C (compound 0.0316 µM): 102% [middle of 5 runs] | viability, T/C (compound 0.1 µM): 101% [middle of 5 runs] | viability, T/C (compound 0.316 µM): 93.7% [middle of 5 runs] | viability, T/C (compound 1 µM): 96.3% [middle of 5 runs] | viability, T/C (compound 3.16 µM): 94.8% [middle of 5 runs] | viability, T/C (compound 10 µM): 78.3% [middle of 5 runs] | pIC50 (curve of compound): < 5.00

O=C(c1cc(Cc2n[nH]c(=O)c3ccccc23)ccc1F)N1CCN(C(=O)C2CC2)CC1 + COc1cc2nc(C)nc(NC(C)c3cc(N)cc(C(F)(F)F)c3)c2cc1OC1CCOC1
pIC50 [1]: < 5.00 | pIC50 [2]: < 5.00 | pIC50 [3]: < 5.00 | pIC50 [4]: < 5.00 | pIC50 [5]: < 5.00 | viability, T/C [6]: 105% | viability, T/C [7]: 106% | viability, T/C [8]: 98.4% | viability, T/C [9]: 107% | viability, T/C [10]: 98.2% | viability, T/C [11]: 106% | viability, T/C [12]: 102% | viability, T/C [13]: 103% | viability, T/C [14]: 97.8% | viability, T/C [15]: 98.8% | viability, T/C [16]: 98.8% | viability, T/C [17]: 93.2% | viability, T/C [18]: 111% | viability, T/C [19]: 107% | viability, T/C [20]: 99% | viability, T/C [21]: 97.8% | viability, T/C [22]: 107% | viability, T/C [23]: 93.5% | viability, T/C [24]: 92.8% | viability, T/C [25]: 95.4% | viability, T/C [26]: 85.8% | viability, T/C [27]: 84.6% | viability, T/C [28]: 84.9% | viability, T/C [29]: 71.5% | viability, T/C [30]: 82.2% | viability, T/C [31]: 81.4% | viability, T/C [32]: 79.3% | viability, T/C [33]: 69.9% | viability, T/C [34]: 104% | viability, T/C [35]: 98%
